The values below come from US8580957B2, “Thetrahydroquinolines derivatives as bromodomain inhibitors” (GlaxoSmithKline LLC, priority 2009, dated 2013).

Molecules are shown by their SMILES. Structures can show the parent of a compound that is named as a salt. Where two headings read alike, the source gives them in different places.

Data set [1] has as its system TNFα levels in LPS stimulated whole blood. The data set is described as follows: LPS Stimulated Whole Blood Measuring TNFα Levels Assay. The class given is cell-based. The conditions noted are these: LPS 200 ng/ml, 24 hours, read-out: pIC50 (TNFα levels) (converted). The protocol:
LPS Stimulated Whole Blood Measuring TNFα Levels Assay
Activation of monocytic cells by agonists of toll-like receptors such as bacterial lipopolysaccharide (LPS) results in production of key inflammatory mediators including TNFα. Such pathways are widely considered to be central to the pathophysiology of a range of auto-immune and inflammatory disorders.
(§1) Compounds to be tested are diluted to give a range of appropriate concentrations and 1 ul of the dilution stocks is added to wells of a 96 plate. Following addition of whole blood (130 ul) the plates are incubated at 37 degrees (5% CO2) for 30 min before the addition of 10 ul of 2.8 ug/ml LPS, diluted in complete RPMI 1640 (final concentration=200 ng/ml), to give a total volume of 140 ul per well. After further incubation for 24 hours at 37 degrees, 140 ul of PBS are added to each well. The plates are sealed, shaken for 10 minutes and then centrifuged (2500 rpm×10 min). 100 ul of the supernatant are removed and TNFα levels assayed by immunoassay (typically by MesoScale Discovery technology) either immediately or following storage at −20 degrees. Dose response curves for each compound was generated from the data and an IC50 value was calculated.

The test system of data set [2] is LPS induced IL-6 secretion from whole blood. Briefly: Measurement of LPS Induced IL-6 Secretion from Whole Blood. The class given is cell-based. The note with it: LPS 200 ng/ml, 24 hours, read-out: pIC50 (IL-6 levels) (converted). The protocol: Measurement of LPS Induced IL-6 Secretion from Whole Blood
Activation of monocytic cells by agonists of toll-like receptors such as bacterial lipopolysaccharide (LPS) results in production of key inflammatory mediators including IL-6. Such pathways are widely considered to be central to the pathophysiology of a range of auto-immune and inflammatory disorders.
as §1, with “concentrations of which” for “concentrations and”, “the diluted” for “the dilution”, “to” for “to wells of”, “96 well” for “96”, “and IL-6” for “and TNFα”, “degrees. Concentration” for “degrees. Dose”

Data set [3] concerns Balb/c male mice given a lethal dose of LPS. Briefly: In Vivo Mouse Endotoxemia Model. The note with it: 15 mg/kg LPS i.p.; compound 10 mg/kg intravenously 90 min later; summed across multiple repeat experiments. The text has this: In Vivo Mouse Endotoxemia Model
High doses of Endotoxin (bacterial lipopolysaccharide) administered to animals produce a profound shock syndrome including a strong inflammatory response, dysregulation of cardiovascular function, organ failure and ultimately mortality. This pattern of response is very similar to human sepsis and septic shock, where the body's response to a significant bacterial infection can be similarly life threatening.
To test the compounds of the invention groups of eight Balb/c male mice were given a lethal dose of 15 mg/kg LPS by intraperitoneal injection. Ninety minutes later, animals were dosed intravenously with vehicle (20% cyclodextrin 1% ethanol in apyrogen water) or compound (10 mg/kg). The survival of animals was monitored at 4 days.
Numbers of animals surviving at 4 days (summed across multiple repeat experiments)

Data set [4] relates to Human cell lines (n=33 comprising 15 heme cell lines, 14 breast cell lines and 4 other cell lines). Briefly: Oncology Growth Assay (CellTiter-Glo). The class given is cell-based. The note with it: 72 hours. The protocol: Human cell lines (n=33 comprising 15 heme cell lines, 14 breast cell lines and 4 other cell lines) were cultured in RPMI-1640 containing 10% fetal bovine serum, 1000 viable cells per well were plated in 384-well black flat bottom polystyrene plates (Greiner #781086) in 48 μl of culture media. All plates were placed at 5% CO2, 37° C. overnight. The following day one plate was harvested with CellTiter-Glo (CTG, Promega #G7573) for a time equal to 0 (T0) measurement and compound (20 point titration from 14.7 uM to […]) was added to the remaining plates. The final concentration of DMSO in all wells was 0.15%. Cells were incubated for 72 hours or the indicated time and each plate was developed with CellTiter-Glo reagent using a volume equivalent to the cell culture volume in the wells. Plates were shaken for approximately 2 minutes and chemiluminescent signal was read on the Analyst GT (Molecular Devices) or EnVision Plate Reader (Perkin Elmer).
Results were expressed as a percent of the TO and plotted against the compound concentration. The TO value was normalized to 100% and represents the number of cells at time of compound addition and the concentration response data were fit with a 4 parameter curve fit using XLfit software (model 205). The concentration that inhibited cell growth by 50% (gIC50) is the midpoint of the ‘growth window’ (between the TO and DMSO control). The Ymin−T0 value is determined by subtracting the T0 value (100%) from the Ymin value (%) determined from the fit of the concentration response curve. Values from the wells with no cells were subtracted from all samples for background correction.
(ATP-based viability assays read luminescence as a measure of living cells.)

Usually melting point stands for the temperature, or range, at which the solid turns liquid. `CC(=O)N1c2ccc(-c3ccc(CN4CCCCC4)cc3)cc2[C@@H](Nc2ccc(F)cc2)C[C@H]1C` (racemic) [Example 11, 1-Acetyl-2-methyl-N-(4-fluorophenyl)-6-[4-(1-piperidinylmethyl)phenyl]-1,2,3,4-tetrahydro-4-quinolinamine] had a melting point of 106 °C.
The same measure, in the same setting: under `COC(=O)c1ccc(-c2ccc3c(c2)C(Nc2ccc(C#N)cc2)CC(C)N3C(C)=O)cc1` (centres unmarked) [Example 82] stands 252 °C.
`CCN(c1ccccc1)[C@H]1C[C@@H](C)N(C(C)=O)c2ccc(-c3ccccc3)cc21` (stereo in doubt) [Example 87, 1-acetyl-N-ethyl-2-methyl-N,6-diphenyl-1,2,3,4-tetrahydro-4-quinolinamine] showed a melting point of 121 °C. In data set [1], the IC50 is at most 10 µM.
In turn, `CC(=O)N1c2ccc(-c3ccc(CN(C)C)cc3)cc2[C@@H](Nc2ccccc2)C[C@H]1C` (racemic) [Example 35, 1-acetyl-6-{4-[(dimethylamino)methyl]phenyl}-2-methyl-N-phenyl-1,2,3,4-tetrahydro-4-quinolinamine] returned a melting point of 90 °C.
Take `CC(=O)N1c2ccc(-c3ccc(CN4CCCCC4)cc3)cc2[C@H](Nc2ccccc2)C[C@@H]1C` [Example 164, (2S,4R)-1-Acetyl-2-methyl-N-phenyl-6-[4-(1-piperidinylmethyl)phenyl]-1,2,3,4-tetrahydro-4-quinolinamine]: the IC50 in data set [2] and in data set [1] was at most 10 µM in each case.
Consider `CC(=O)N1c2ccc(-c3ccc(C(=O)O)cc3)cc2[C@H](Nc2ccc(Cl)cc2)C[C@@H]1C` [Example 6, 4-{(2S,4R)-1-acetyl-4-[(4-chlorophenyl)amino]-2-methyl-1,2,3,4-tetrahydro-6-quinolinyl}benzoic acid], for which, in data set [3], the “Animals surviving at 4 days (percent)” value is on record as 58%. Besides, the “Numbers of animals surviving at 4 days” value in data set [3] is on record as 14/24. Also, the IC50 in data set [2] is at most 10 µM; in data set [4] (all 33 cell lines, read-out: gIC50 across all cell lines) it was 35 to 9200 nM; in data set [4] (breast cell lines, read-out: gIC50 for breast cell lines), 40 to 9200 nM; in data set [4] (heme cell lines, read-out: gIC50 for heme cell lines) it was 35 to 844 nM.
Take `CC(=O)N1c2ccc(-c3ccc(CN4CCCCC4)cc3)cc2[C@@H](Nc2ccc(F)cn2)C[C@H]1C` (racemic) [Example 137, (cis)-1-Acetyl-N-(5-fluoro-2-pyridinyl)-2-methyl-6-[4-(1-piperidinylmethyl)phenyl]-1,2,3,4-tetrahydro-4-quinolinamine formate salt]: the IC50 in data set [2] and in data set [1] was at most 10 µM each time.
For `CC(=O)N1c2ccc(-c3ccc(-c4nn[nH]n4)cc3)cc2[C@@H](Nc2ccc(Cl)cc2)C[C@H]1C` (stereo in doubt) [Example 121, 1-Acetyl-N-(4-chlorophenyl)-2-methyl-6-[4-(1H-tetrazol-5-yl)phenyl]-1,2,3,4-tetrahydro-4-quinolinamine], the melting point amounted to 250 °C.
As for `CC(=O)N1c2ccc(-c3ccc(C(=O)N4CCOCC4)cc3)cc2C(Nc2ccc(Cl)cc2)CC1C` (centres unmarked) [Example 109], the melting point is 146 °C. The IC50 in data set [1] was at most 10 µM.
On to `CCOC(=O)c1ccc(-c2ccc3c(c2)[C@@H](Nc2ccc(Cl)cc2)C[C@@H](C)N3C(C)=O)cc1` (stereo in doubt) [Example 119, Ethyl 4-{1-acetyl-4-[(4-chlorophenyl)amino]-2-methyl-1,2,3,4-tetrahydro-6-quinolinyl}benzoate], for which the melting point turned out to be 114 °C.
As for `CC(=O)N1c2ccc(-c3ccc(CN4CCCCC4)cc3)cc2[C@@H](Nc2ccc(C)cn2)C[C@H]1C` (racemic) [Example 135, (cis)-1-Acetyl-2-methyl-N-(5-methyl-2-pyridinyl)-6-[4-(1-piperidinylmethyl)phenyl]-1,2,3,4-tetrahydro-4-quinolinamine formate salt], the IC50 in data set [1] was at most 10 µM.
On the same count and under the same terms, under `CC(=O)N1c2ccc(-c3ccc(CN4CCCCC4)cc3)cc2[C@@H](Nc2ccc(C(F)(F)F)cn2)C[C@H]1C` (racemic) [Example 134, (cis)-1-Acetyl-2-methyl-6-[4-(1-piperidinylmethyl)phenyl]-N-[5-(trifluoromethyl)-2-pyridinyl]-1,2,3,4-tetrahydro-4-quinolinamine formate salt] stands at most 10 µM.
For `CC(=O)N1c2ccc(-c3ccc(C#N)cc3)cc2[C@@H](Nc2ccc(F)cc2)C[C@H]1C` (racemic) [Example 62, 4-{1-acetyl-4-[(4-fluorophenyl)amino]-2-methyl-1,2,3,4-tetrahydro-6-quinolinyl}benzonitrile], the melting point is 140 °C.
The same measure, in the same setting: as for `CCNC(=O)c1ccc(-c2ccc3c(c2)[C@@H](Nc2ccc(Cl)cc2)C[C@@H](C)N3C(C)=O)cc1` (stereo in doubt) [Example 101, 4-{1-Acetyl-4-[(4-chlorophenyl)amino]-2-methyl-1,2,3,4-tetrahydro-6-quinolinyl}-N-ethylbenzamide], the figure is 134 °C.
